In patent US12439922B2, “Plant-based chemicals for Varroa mite control” (priority 2019, dated 2025):
Values joined by “and” are separate entries in the source; they are usually repeats but may differ in a detail not shown here. Identical values can stand only once. Like-named read-outs stand apart in the source and are kept apart here.

What was measured:
[1] = system: Varroa mites (Varroa destructor); assay: LD50 determination for mites (topical application, mortality at 24 h); type: in vivo; details: for Mean LD50 / LD50 1 / LD50 2 / LD50 3: topical, mortality at 24 h; for Mean LD50: mean±se of three trials; for LD50 1: trial 1; for LD50 2: trial 2; for LD50 3: trial 3; for estimated LD50: max. dose 3200 ng/mite in three trials
Experimental: Varroa mites (Varroa destructor) were collected from colonies at the Michigan State University apiary in East Lansing, MI. Mites were collected using the “sugar shake” method (Macedo and Ellis 2002). Approximately 350 bees were brushed from brood frames into a plastic basin and then poured into 473 ml wide-mouth Mason jars fitted with screen lids (3 mm×3 mm mesh). Approximately 8 g powdered sugar were sifted through the screen and the jar was shaken for 20 seconds and let to sit for 3 minutes. The mites then fell through the screen onto a piece of paper. Mites were collected, and the sugar dusts were washed off using moistened paintbrushes. Mites were kept in Petri-dishes with worker pupae and transported to the campus lab for LD50 determination.
Chemicals were dissolved in acetone serially diluted to obtain appropriate dosages. Each mite was topically applied with 0.2 μl of acetone containing the tested chemicals. A triplicate of 10 mites per dose were then housed in a Petri dish (diameter 3 cm, 34.5° C., RH 75%) with one white-eyed worker pupa as food. Mortality was assessed at 24 h. Mites were considered dead if no movement is observed in response to prodding with a metal probe.
(§1) For both bee and mite mortality data, control mortality was used to correct the mortality of different doses of drugs (Abbott, 1925). A Log-Probit line was fitted for each treatment from which the LD50 values and 95% confidence intervals were calculated using the R statistical package (R Development Core Team 2008).

honey bees (foragers) = assay: LD50 determination for bees (topical application to foragers, mortality observed for 2 days); type: in vivo, Apis mellifera
Experimental: Honey bees were obtained from the MSU apiary. Forty to fifty colonies were routinely kept during summer months for experiments. Foragers were used for LD50 determination because they are the most sensitive to toxins.
Foragers were collected when they were returning to the hive by an insect vacuum. Foragers were briefly anesthetized with carbon dioxide and individual forager was dosed with 4 μl of acetone containing various dosages of insecticide (at least 5 doses per drug) and a control with 4 μl of acetone only. Bees then were caged together (a triplicate of 10 bees per dose per colony) and their mortality observed for 2 days (acute toxicity) in an incubator (34.5° C., RH 75%).
as §1

Varroa mites = assay: Picrotoxinin applied to bees inoculated with Varroa mites: dead mites; type: in vivo, Varroa destructor; details: for 24-hour dead mite / 4-hour dead mite / 2-hour dead mite: 10 mites on 10 bees per dish
Experimental: (§2) Picrotoxinin was dissolved in acetone (0.0064 gram picrotoxinin in 1.6 ml acetone=4 ug/ul) and then serially diluted to various doses. A selected amount of picrotoxinin was applied to each bee after CO2 anesthetization. Then, the bees were inoculated with Varroa mites (10 mites on 10 bees per dish). This procedure was employed to ensure that the mites were obtaining the chemical from the bees.
(§3) The numbers of dead Varroa mites and dead bees were recorded after 2, 4 and 24 hours.

bees = type: in vivo, Apis mellifera
Experimental: as §2, §3

[2] = Highest amount that dissolves in acetone; type: physicochemical; details: in 4 μl acetone
Experimental: Higher doses to honey bees were not tested because 2 mg was the highest amount one can dissolve with 4 μl acetone.

C=C(C)[C@@H]1[C@H]2OC(=O)[C@@H]1[C@]1(O)C[C@H]3O[C@]34C(=O)O[C@H]2[C@]14C [Picrotoxinin, picrotoxinin]
LD50 for this particular trial (FIG. 1) ([1]; dose response of FIG. 1): 22.61 ng/mite
susceptibility of Varroa mites to toxicity compared to honey bees ([1]; mite LD50 versus highest bee dose): at least 100,000 fold
Mean LD50 [1]: 20.16 ± 2.00 ng/mite
Mean LD50 ([1]; listed as picrotoxinin): 20.16±2.00 ng/mite
LD50 1 [1]: 20.82 ng/mite
LD50 2 [1]: 22.61 ng/mite
LD50 3 [1]: 17.05 ng/mite
killing of honeybees at highest dose (honey bees (foragers); 2,000,000 ng (2 mg) per bee in 4 μl acetone): failed to kill any honeybees
LD50 (honey bees (foragers); topical to foragers, max dose 2000 ug/bee): >2000 (max dose ug/bee
24-hour dead mite (Varroa mites; 0.000005 ug/bee): 1
4-hour dead mite (Varroa mites; 0.00005 ug/bee): 1
2-hour dead mite (Varroa mites; 0.0005 ug/bee): 1
4-hour dead mite (Varroa mites; 0.0005 ug/bee): 3
24-hour dead mite (Varroa mites; 0.0005 ug/bee): 3 and 2
2-hour dead mite (Varroa mites; 0.005 ug/bee): 1
4-hour dead mite (Varroa mites; 0.005 ug/bee): 1
4-hour dead mite (Varroa mites; 0.05 ug/bee): 2 and 1
24-hour dead mite (Varroa mites; 0.05 ug/bee): 5 and 3
2-hour dead mite (Varroa mites; 0.1 ug/bee): 2
4-hour dead mite (Varroa mites; 0.1 ug/bee): 5 and 4
24-hour dead mite (Varroa mites; 0.1 ug/bee): 6 and 9
2-hour dead mite (Varroa mites; 1 ug/bee): 2 and 4
4-hour dead mite (Varroa mites; 1 ug/bee): 4 and 5
24-hour dead mite (Varroa mites; 1 ug/bee): 7 and 10
24 hr dead mite (Varroa mites; treatment 1 ug/ul): 9 and 10
24 hr dead mite (Varroa mites; treatment 4 ug/ul): 10
24-hour dead bee (bees; 0.005 ug/bee, 10 bees per dish): 1
2-hour dead bee (bees; 0.1 ug/bee, 10 bees per dish): 1
4-hour dead bee (bees; 0.1 ug/bee, 10 bees per dish): 1
4-hour dead bee (bees; 1 ug/bee, 10 bees per dish, # = dead perhaps due to leaked sugar syrup): 1#
24 hr dead bee (bees; treatment 1 ug/ul): 0
highest amount one can dissolve [2]: 2 mg

CC(C)(C)[C@]1(O)CC2OC(=O)CC23C(=O)OC2OC(=O)[C@H](O)C231 (stereo partly shown) [Bilobalide]
estimated LD50 [1]: >3200 ng/mite

Ginkolide A
Mean LD50 [1]: 535.52±450.90 ng/mite
LD50 1 [1]: 348.63 ng/mite
LD50 2 [1]: 1049.82 ng/mite
LD50 3 [1]: 208.10 ng/mite

CC1(C)C(C=C(Cl)Cl)C1C(=O)OC(C#N)c1ccc(F)c(Oc2ccccc2)c1 (stereo not shown) [Cyfluthrin, reference compound]
Mean LD50 [1]: 0.63 ± 0.18 ng/mite
LD50 1 [1]: 0.46 ng/mite
LD50 2 [1]: 0.82 ng/mite
LD50 3 [1]: 0.60 ng/mite

C[C@@H]1C(=O)O[C@H]2[C@H](O)[C@@]34[C@H]5C[C@@H](C(C)(C)C)[C@]36[C@@H](OC(=O)[C@@H]6O)O[C@@]4(C(=O)O5)[C@@]12O [Ginkolide B]
estimated LD50 [1]: >3200 ng/mite

Ginkolide C
estimated LD50 [1]: >3200 ng/mite
